Results as given in publication PMC8000724, “Trans-Epithelial Transport, Metabolism, and Biological Activity Assessment of the Multi-Target Lupin Peptide [sequence] (P5) and Its Metabolite [sequence] (P5-Met)” (Nutrients, 2021).

What was measured:
[1] = test system: SREBP-2; assay: Western blot, SREBP-2 protein level in HepG2 cells; assay type: cell-based, human; details: HepG2, 50 µM, 24 h, mean ± SD
Procedure: The HepG2 cell line was bought from ATCC (HB-8065, ATCC from LGC Standards, Milan, Italy) and was cultured in DMEM high glucose with stable L-glutamine, supplemented with 10% FBS, 100 U/mL penicillin, 100 µg/mL streptomycin (complete growth medium) with incubation at 37 °C under 5% CO2 atmosphere.
Immunoblotting experiments were performed using optimized protocol. A total of 1.5 × 10^5 HepG2 cells/well (24-well plate) were treated with 50 μM of P5 and P5-met for 24 h. After each treatment, the supernatants were collected and stored at −20°C; cells were scraped in 40 µL ice-cold lysis buffer (RIPA buffer + inhibitor cocktail + 1:100 PMSF + 1:100 Na-orthovanadate + 1:1000 β-mercaptoethanol) and transferred in ice-cold microcentrifuge tubes. […] Total proteins were quantified by the Bradford’s method and 50 μg of total proteins loaded on a pre-cast 7.5% Sodium Dodecyl Sulfate-Polyacrylamide (SDS-PAGE) gel at 130 V for 45 min. […] Target proteins, on milk or BSA blocked membrane, were detected by primary antibodies as follows: anti-SREBP-2, anti-LDLR, anti-HMGCoAR, anti-PCSK9, anti HNF1-α and anti-β-actin. Secondary antibodies conjugated with HRP and a chemiluminescent reagent were used to visualize target proteins and their signal was quantified using the Image Lab Software (Biorad, Hercules, CA, USA). […]

[2] = test system: secreted mature PCSK9; assay: Quantification of PCSK9 secreted by HepG2 cells through ELISA; assay type: cell-based, human; details: HepG2 supernatants, 50 µM, mean ± SD
Procedure: The supernatants collected from treated HepG2 cells (50.0 μM of P5 and/or P5-met) were centrifuged at 600 × g for 10 min at 4 °C and ELISA assay performed using protocol already optimized. They were recovered and diluted to the ratio 1:10 with DMEM in a new ice-cold tube. PCSK9 was quantified by ELISA (R&D System, Minneapolis, MN, USA). Briefly, the experiments were carried out at 37 °C, following the manufacturer’s instructions. Before starting the assay, human PCSK9 standard curve (20.0, 10.0, 5.0, 2.5, 1.25, and 0.625 ng/mL) was prepared by serial dilutions from a 40 ng/mL stock. 100 µL of the Assay Diluent RD1-9 (provided into the kit) were placed in each well, before adding the standards and the samples (50 µL) and incubating the ELISA plate for 2 h at RT. Subsequently, wells were washed 4 times with the wash buffer, and 200 µL of human PCSK9-conjugate (HRP-labelled anti-PCSK9) was added to each well for 2 h at RT. Following aspiration, wells was washed 4 times with the kit wash buffer. After the last wash, 200 µL of substrate solution were added to the wells and allowed to incubate for 30 min at RT. The reaction was stopped with 50 µL of the stop solution (2 M sulfuric acid) and the absorbance at 450 nm was measured using Synergy H1 microplate (Winooski, VT, USA).

H-LPKHSDAD-OH [Peptide P5-met] was tested, and the “SREBP-2 protein level versus the control” value [1] was 130.4 ± 16.4% and the “Decrease of the secretion of mature PCSK9” value [2] was 22.2 ± 4.9%.
